The source of these data is PMC6274922, “Defined Small Molecules Produced by Himalayan Medicinal Plants Display Immunomodulatory Properties” (International Journal of Molecular Sciences, 2018).

In brackets after ≈: the same amount, converted by molar mass.

The test system of data set [1] is immortalized non-cancerous H69 human cholangiocyte cell line. Put plainly: in vitro. The procedure:
(§1) The immortalized non-malignant human cholangiocyte cell line H69 is a SV40-transformed human bile duct epithelial cell line originally derived from a normal liver harvested for transplantation. […] Cytotoxicity screening of the test compounds against the H69 cell line was performed using an xCELLigence SP system (ACEA Biosciences Inc., San Diego, CA, USA) as described by us previously. All experiments were carried out as per the manufacturer’s instructions with 0.25–60 min read intervals using the real time cell assay (RTCA) software (ACEA Biosciences Inc., USA). All assays were conducted in triplicate. Inter-well spaces were filled with 100 µL of culture medium or PBS to prevent evaporation. The E-plates containing cells were seeded at 5000 cells/well and incubated overnight at 37 °C with 5% CO2. The cells were then treated with prepared concentrations (50, 100, 500 µg/mL) of the test compounds and the viability of the cells was monitored continually for 24 h.
(§2) We determined the IC50 values of test compounds based on the normalised cell index (nCI) for cells, as described previously. Briefly, the 24 h nCI relative to the negative DMSO treated controls (deemed 100%) on the y-axis was plotted against the log concentration value x-axis.

The subject of data set [2] is DC2.4 murine dendritic cell line. Put plainly: Gene expression analysis by RT-qPCR in DC2.4 cells. Type of data set: cell-based, mouse. The settings on record: for modulation of gene expression, in words: DC2.4 cells, mRNA correlated with FACS RFI (Figure 3). On the technique in general: In qPCR the cycle at which signal appears reflects the starting amount.
Experimental: The following day, cells were harvested and 20,000 live cells from each condition were sorted by FACS into RLT buffer and RNA extracted for mRNA analysis by RT-qPCR. The relative gene expression for each gene was calculated for each compound and compared to the media control. We then correlated gene expression with protein expression represented by the FACS RFI (Figure 3). […] The SUM of the changes for all genes and proteins relative to the media-only control is summarized in the bottom right corner of Figure 3 SUM.
DC2.4 cells were co-cultured overnight with test compounds as described above. The following day, cells were harvested and 20,000 live cells from each condition were sorted by FACS into RLT buffer and stored at −70 °C. On the day of extraction, frozen cell lysates were thawed quickly on ice and mRNA was extracted using the RNEasy micro kit (Qiagen, Chadstone Centre, VIC, Australia) according to the manufacturer’s instructions. cDNA was synthesized using oligo-dT and AMVRT (Promega, Sydney, Australia) according to the manufacturer’s instructions. Gene expression was measured using individual Taqman gene expression assays (Applied Biosystems, Foster City, CA, USA) and Platinum Taq polymerase (Life Technologies, Carlsbad, CA, USA) in a 15 μL volume reaction using a Rotorgene 3000 PCR machine (Corbett Research, Mortlake, Australia) with the following conditions: 2 min at 50 °C for calibration of fluorescence gain values, then denaturing at for 2 min at 95 °C, followed by 45 cycles of 5 s at 95 °C and 30 s at 60 °C. Gene expression was quantified relative to a standard curve generated from a titration of cloned cDNA and relative gene expression was calculated by dividing the expression value of the test sample by that of the cells grown in media only. All assays were conducted in triplicate.
Data set [3] has the same test system. The data set is described as follows: Combined FACS + PCR score of immunomodulation in DC2.4 cells. Type of data set: cell-based, mouse.
Data set [4] has the same test system. Format: cell-based. The settings on record: for Median Fluorescence Intensity (MFI) of surface MHC-I expression: representative FACS plots, DC2.4 cells, media only control MFI 732.
The subject of data set [5] is multi-drug resistant Plasmodium falciparum. The conditions noted are these: cited from earlier work.
A further data set deals with lung carcinoma (A549). Also noted: method as in PMID 29555944. The conditions noted are these: cited from earlier work.
The subject of the next data set is HT-29 cancer cell lines. Also noted: method as in PMID 29555944. The settings on record: cited from earlier work.
Another data set can be described thus: in vitro. The settings on record: human. The procedure:
as §1, §2

The subject of data set [6] is A431 epithelial cancer cell lines. Further details: method as in PMID 9584334. The conditions noted are these: in vitro; cited from earlier work.
In the next data set the test system is HL60. Further details: method as in PMID 9584334. The conditions noted are these: in vitro; cited from earlier work.

Consider protopine [Compound 8], for which the “IC50 (cytotoxicity)” value in data set [1] was 9 µg/mL. Besides, the cell toxicity in [1] (H69 cells, at 24 h) stood at 68%; in data set [1] (H69 cells, from 6 h), 23%. The “PCR SUM” value in [2] (sum of the relative expression of the 7 genes) amounted to 10.01. In addition, in [3] (average of FACS and PCR values), the Ave. was determined as 1.43. The “SUM FACS + PCR” value in data set [3] (sum of all FACS RFI and PCR relative expression values) is recorded as 19.96. Also, the “FACS SUM” value in data set [4] (sum of the RFI of the 7 surface markers) is 9.95.

As for `COc1cc2c(cc1O)[C@@H]1Cc3ccc(OC)c(O)c3CN1CC2` [Compound 10, scoulerine], the “antimalarial activity, in words” value in data set [5] is listed as “potent antimalarial drug lead compound”. For the same compound, the “cytotoxic activity, in words” value with lung carcinoma (A549) and in the data set with HT-29 cancer cell lines was “significant cytotoxic activity” in each case. Also, the “modulation of gene expression, in words” value in data set [2] was “strong up-regulator of several important genes including MHC-I, CD80 and CD86”. Further, the “Median Fluorescence Intensity (MFI) of surface MHC-I expression” value in [4] came to 1582.

In data set [1] (H69 cells, from 6 h with 100 µg/mL), `CC#CC#C/C=C1\C=CC2(CCCO2)O1` (centres unmarked) [Compound 5, (E)-spiroether] showed a cell death of 96.5%. The IC50 at 24 h in the data set “in vitro” is < 1 µg/mL.

As for `COc1c2ccoc2cc2oc(=O)ccc12` [Compound 13, bergapten], the IC50 at 24 h in “in vitro” was determined as 126 µg/mL (≈ 585 µM). The “anti-proliferative activity, in words” value (in [6]; in the data set on HL60) was “anti-proliferative activity” each time. In data set [2], the “modulation of gene expression, in words” value was “suppression of expression of some genes, and notably MHC-I at both the gene and protein level”. Moreover, the “Median Fluorescence Intensity (MFI) of surface MHC-I expression” value in data set [4] turned out to be 304.

The compound `O=c1cc(-c2ccc(O)c(O)c2)oc2cc(O)cc(O)c12` [Compound 6, luteolin] showed an IC50 at 24 h in “in vitro” of 30 µg/mL (≈ 105 µM).

The term IC50 denotes the midpoint of a concentration-inhibition curve. A high value points to weaker potency.
